{"source": "paper PMC8236048", "about": "“Pharmaceutical design of a delivery system for the bacteriocin lacticin 3147” (Drug Delivery and Translational Research, 2021)", "key": {"pepsin [1]": {"biological_target": "T1, pepsin (Sus scrofa, UniProt P00791)", "T1 construct": "purchased Sigma-Aldrich Ireland Ltd", "T1 sequence (P00791 60-385)": "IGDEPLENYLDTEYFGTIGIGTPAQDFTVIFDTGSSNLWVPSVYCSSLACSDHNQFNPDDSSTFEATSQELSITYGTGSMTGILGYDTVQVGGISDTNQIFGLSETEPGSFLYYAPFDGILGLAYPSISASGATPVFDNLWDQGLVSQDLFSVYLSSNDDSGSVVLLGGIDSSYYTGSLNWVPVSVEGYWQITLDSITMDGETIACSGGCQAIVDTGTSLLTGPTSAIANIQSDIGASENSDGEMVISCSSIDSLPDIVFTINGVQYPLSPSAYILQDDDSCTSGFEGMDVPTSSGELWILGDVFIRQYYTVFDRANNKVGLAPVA", "test": "Enzyme degradation of lacticin 3147 by pepsin (activity, MALDI-TOF, RP-HPLC)", "assay_type": "in vitro ADME", "conditions": "25 mg/ml pepsin, 3 h, 37 °C, pH 2.29; then growth curve at 400 nM peptides", "method": "(§1) Lacticin 3147 production was confirmed by matrix-assisted laser desorption ionization-time of flight (MALDI-TOF) mass spectrometry using sinapinic acid as the matrix. About 0.7 μl of the matrix solution (sinapinic acid, 4 mg/ml in 50% acetone/50% methanol) was added to the target plate and left to evaporate (30 s) at ambient conditions. Individual peptides (Ltnα or Ltnβ) were resuspended in 70% IPA and mixed at a 1:1 volume ratio with a 10-mg/ml stock solution of sinapinic acid in 60% ACN with 0.1% TFA. About 0.3 μl of this peptide-matrix solution was then added to the matrix layer previously applied to the plate and evaporated at ambient conditions. The plate was inserted into a MALDI-TOF Ultraflex mass spectrometer (Bruker) and analysed using reflectron positive 700–3500 Da mode. 100 shots were fired at 88% intensity. This method was also used for the analyses of samples from the enzyme degradation studies.\nAll lacticin 3147 samples were filtered through a 0.2-µm PES filter before analysis by RP-HPLC using an Agilent 1200 Infinity Series HPLC (Agilent Technologies, USA). The HPLC separations were carried out on an Aeris 3.6 µm Peptide 100 Å 250 × 4.6 mm, liquid chromatography column with a flow rate of 0.8 ml/min, and with 0.1% trifluoroacetic acid (TFA) in water as aqueous phase-A and 0.1% TFA in acetonitrile (ACN) as organic phase-B. The total run time was 51 min. The mobile phase started with 30:70 A:B for 3 min and change linearly to 35:65 A:B over 30 min. The organic phase was then adjusted to 100% within 1 min and continued to flow for 5 min. After this, the mobile phase returned to the initial ratio to stabilize the chromatographic system. The detector was set at 214 nm. The peak area (mAU) was plotted against the concentration (1.56–500 µg/ml) to make a calibration curve. The coefficients of determination (R^2 values) were 0.9963 and 0.9983 for Ltnα and Ltnβ respectively. This method was subsequently used for quantitative analysis of Ltnα and Ltnβ.\n(§2) Trypsin and α-chymotrypsin stock solutions (50 mg/ml) were resuspended in water. Pepsin (50 mg/ml) was resuspended in 0.02 M HCL. About 1 mg/ml individual solutions of Ltnα and Ltnβ in 70% IPA were filtered and diluted (1 in 20) in sterile PBS to give a final peptide concentration of 50 µg/ml. After this, 5.3 µl Ltnα and 4.6 µl Ltnβ were added to the same well of a 96-well plate. The pH of the lacticin 3147-pepsin solution was 2.29. Control wells consisting of Ltnα and Ltnβ together, Ltnα alone, and Ltnβ alone with no enzyme were included. The 96-well plate was incubated for 3 h at 37 °C to allow the enzyme to act. After incubation, the wells were filled to 50 μl with PBS and 150 μl of diluted bacterial cell culture (L. monocytogenes at an OD of 0.1) was added to each well. The final peptide concentration of 400 nM (1.31 µg/ml Ltnα, 1.14 µg/ml Ltnβ) was obtained when the wells were filled to 200 µl. Blanks were set up in triplicate with media only and PBS only. The three control wells were also set up with bacterial culture and each enzyme only. […] The effect of the proteases pepsin, α-chymotrypsin, and trypsin on the lacticin 3147 peptides was determined by MALDI-TOF mass spectrometry. […] After 3 h, 1 µl was removed from each sample and it was analysed by MALDI-TOF mass spectrometry. […]\nPepsin’s effect on lacticin 3147 was also investigated by RP-HPLC. […] After incubation, aliquots were taken, filtered, and analysed by RP-HPLC to determine if pepsin degrades Ltnα or Ltnβ to any extent."}, "α-chymotrypsin": {"biological_target": "T2, α-chymotrypsin (Bos taurus, UniProt P00766)", "T2 construct": "purchased Sigma-Aldrich Ireland Ltd", "test": "Enzyme degradation of lacticin 3147 by α-chymotrypsin (activity, MALDI-TOF)", "assay_type": "in vitro ADME", "conditions": "25 mg/ml α-chymotrypsin, 3 h, 37 °C; then growth curve at 400 nM peptides", "method": "as §1\nas §2, with “µl.” for “µl. Blanks were set up in triplicate with media only and PBS only. The three control wells were also set up with bacterial culture and each enzyme only.”"}, "[2]": {"test_system": "L. monocytogenes ATCC1916", "test": "Well diffusion assay after incubation with α-chymotrypsin", "assay_type": "cell-based", "method": "α-SLN and β-SLN were filtered using a 0.2-µm PES filter, and 25 µl of each were added to the same well of a 96-well plate. About 50 µl of a 50 mg/ml solution of α-chymotrypsin was added to these wells. A blank was set up with 50-µl water instead of α-chymotrypsin. This was repeated for free peptide solutions prepared as outlined above. The 96-well plate was incubated for 3 h at 37 °C. The 96-well plate was then removed from the incubator, and 25 µl of each solution was added in triplicate to 6-mm wells on TSA (6 g/L yeast) plates inoculated with 200 µl L. monocytogenes ATCC1916. The plates were incubated at 37 °C for 24 h, after which the inhibition zones were measured using an electronic Vernier callipers."}, "C. difficile": {"test_system": "C. difficile", "conditions": "antimicrobial-resistant bacteria; cited from earlier work", "excerpt": "(§3) Approximately 223,900 C. difficile infections and 12,800 resulting deaths were reported in the USA in 2017 [17]. Treatment failures and recurrences of infection after the use of antibiotics are increasingly common, with a 2–38% failure rate for vancomycin and 8–50% for metronidazole. A more virulent strain of C. d ..."}, "L. monocytogenes": {"test_system": "L. monocytogenes", "conditions": "cited from earlier work", "excerpt": "as §3"}, "eukaryotic cells": {"test_system": "eukaryotic cells", "conditions": "cited from earlier work", "excerpt": "as §3"}, "[3]": {"test_system": "methicillin-resistant S. aureus (MRSA)", "conditions": "cited from earlier work", "excerpt": "as §3"}, "[4]": {"conditions": "cited from earlier work", "excerpt": "(§4) Gardiner et al., however, reported that α-chymotrypsin alone degrades lacticin 3147 [21]. Lacticin 3147 is heat stable, pH stable, and active at a neutral pH [9]. However, quantitative data on the amount of lacticin 3147 dissolved, i.e. its solution concentration, is rarely reported. In fact, only a handful of quantitative solubility studies on bacteriocins can be found in the literature [[ ..."}, "pepsin [5]": {"biological_target": "T1, pepsin", "conditions": "cited from earlier work", "excerpt": "as §4"}, "trypsin": {"test_system": "trypsin", "conditions": "cited from earlier work", "excerpt": "as §4"}}}
{"substance": "lacticin 3147", "values": [{"measurement": "activity against L. monocytogenes ATCC 1916 after incubation with pepsin", "setting": "pepsin [1]", "result": "remains active"}, {"measurement": "activity against L. monocytogenes ATCC 1916 after incubation with α-chymotrypsin", "setting": "α-chymotrypsin", "result": "growth curve similar to that of the bacterial control"}, {"measurement": "zone of inhibition after incubation with α-chymotrypsin, single well", "setting": "[2]; Fig. 11, first value printed in the picture of the plate", "result": 6, "unit": "mm"}, {"measurement": "zone of inhibition after incubation with α-chymotrypsin, single well", "setting": "[2]; Fig. 11, second value printed in the picture of the plate", "result": 6.1, "unit": "mm"}, {"measurement": "zone of inhibition after incubation with α-chymotrypsin, single well", "setting": "[2]; Fig. 11, third value printed in the picture of the plate", "result": 6, "unit": "mm"}, {"measurement": "activity against C. difficile", "setting": "C. difficile", "result": "active at nanomolar concentrations"}, {"measurement": "activity against L. monocytogenes", "setting": "L. monocytogenes", "result": "active at nanomolar concentrations"}, {"measurement": "toxicity to eukaryotic cells", "setting": "eukaryotic cells", "result": "non-toxic"}, {"measurement": "activity against methicillin-resistant S. aureus (MRSA)", "setting": "[3]", "result": "active at nanomolar concentrations"}, {"measurement": "heat stability", "setting": "[4]", "result": "heat stable"}, {"measurement": "pH stability", "setting": "[4]", "result": "pH stable"}, {"measurement": "effect of pepsin on activity", "setting": "pepsin [5]", "result": "unaffected"}, {"measurement": "effect of trypsin", "setting": "trypsin", "result": "degraded and inactivated"}]}
